Measured values published in patent US20230117328A1, “METHODS TO TREAT CANCER USING (R)-N-(3-FLUORO-4-((3-((1-HYDROXYPROPAN-2-YL)AMINO)-1H-PYRAZOLO[3,4-B]PYRIDIN-4-YL)OXY)PHENYL)-3-(4-FLUOROPHENYL)-1-ISOPROPYL-2,4-DIOXO-1,2,3,4-TETRAHYDROPYRIMIDINE-5-CARBOXAMIDE” (Array BioPharma Inc., priority 2020, published 2023).

What was measured:
BCRP = target: T1, BCRP (Homo sapiens, UniProt Q9UNQ0); assay: BCRP substrate assessment in vitro; assay type: in vitro ADME
T1 sequence (Q9UNQ0 1-655): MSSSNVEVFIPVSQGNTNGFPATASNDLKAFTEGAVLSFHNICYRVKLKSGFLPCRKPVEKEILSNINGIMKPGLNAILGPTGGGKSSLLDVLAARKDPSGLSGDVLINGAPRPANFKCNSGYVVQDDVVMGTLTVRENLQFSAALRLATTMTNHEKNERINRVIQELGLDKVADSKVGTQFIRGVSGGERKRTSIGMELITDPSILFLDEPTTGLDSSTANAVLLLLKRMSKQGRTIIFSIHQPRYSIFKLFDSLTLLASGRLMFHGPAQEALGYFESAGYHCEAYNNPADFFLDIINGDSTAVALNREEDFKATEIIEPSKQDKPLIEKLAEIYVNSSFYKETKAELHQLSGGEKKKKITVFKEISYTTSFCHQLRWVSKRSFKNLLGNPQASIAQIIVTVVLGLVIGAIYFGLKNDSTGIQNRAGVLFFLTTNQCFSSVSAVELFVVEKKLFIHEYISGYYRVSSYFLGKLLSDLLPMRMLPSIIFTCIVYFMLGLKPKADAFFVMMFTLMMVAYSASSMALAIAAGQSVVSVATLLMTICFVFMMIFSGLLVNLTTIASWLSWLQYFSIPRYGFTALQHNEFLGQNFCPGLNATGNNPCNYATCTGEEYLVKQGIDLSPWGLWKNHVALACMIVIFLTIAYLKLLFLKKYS

Sprague Dawley rats = assay: 28-day repeat dose oral toxicity and toxicokinetic study with 28-day recovery period; assay type: in vivo
[1] = tested on: female Sprague Dawley rats; conditions: female, Sprague Dawley, rat, in vivo
syngeneic tumor = assay: Re-challenge of cured tumor-bearing mice with the same syngeneic tumor; assay type: in vivo; conditions: tumor-bearing mice cured following treatment with Compound 1
[2] = tested on: MC-38 colon adenocarcinoma tumors; assay: Antitumor efficacy in syngeneic MC-38 colon adenocarcinoma tumor-bearing mice; assay type: in vivo, C57BL/6 mice; conditions: MC-38 tumor-bearing mice; for Median Survival (days): not reached = more than 50% of animals alive at end of study (Day 66), 50 mg/kg
Protocol: Female C57BL/6 bearing syngeneic MC-38 colon adenocarcinoma tumors (n=8/group, implanted on Day 0) were administered test articles Compound 1 or anti-PD-1, as monotherapy or in combination, starting on Day 10. As monotherapy, anti-PD-1 was administered twice weekly (BIW) for 2 consecutive weeks by intraperitoneal (IP) injection at 200 μg/mouse (Days 10, 13, 17, and 20). As monotherapy, Compound 1 was administered twice daily (BID) at 50 mg/kg by oral gavage (PO) for 28 consecutive days (Days 10-37). As combination therapy with anti-PD-1 (administered at the dose and schedule indicated above), Compound 1 was administered BID at 50 mg/kg PO for 1) 7 consecutive days (Days 10-16); 2) 14 consecutive days (Days 10-23); 3) 21 consecutive days (Days 10-30); 4) 28 consecutive days (Days 10-37); or, 5) 7 consecutive days on the first and third week of dosing (Days 10-16 and Days 24-30). This set of cohorts was used to determine both the tolerability and efficacy of Compound 1 treatment across dosing schedules, as well as ocular toxicity upon recovery on Day 66.
For initial tumor outgrowth, a suspension of 1×10^6 MC-38 cells in a volume of 100 μL PBS was implanted subcutaneously on the right flank of the animal near the axillary region. Animals were then randomly assigned to treatment groups. Treatment was initiated on day 10 after MC-38 tumor cell inoculation to allow for a sufficient treatment window (Table 1).
Anti-PD-1 was administered twice weekly (BIW) for 2 consecutive weeks by intraperitoneal (IP) injection at 200 μg/mouse. Compound 1 was administered twice daily (BID) for 28 consecutive days by oral gavage (PO) at 50 mg/kg in 10 mL/kg dose volume (with or without anti-PD-1 administered on the above indicated dose and schedule). Alternatively, Compound 1 was administered BID for 7, 14 or 21 consecutive days, or on Days 10-16 and Days 24-30 in combination with anti-PD-1. Concomitantly, a set of satellite cohorts comprising tumor-naïve mice was treated with the same schedules and doses as indicated above.
Animals were monitored for tumor growth and body weight 2-3 times per week based on outgrowth kinetics. Tumor diameter was measured with digital calipers, and the tumor volume in mm^3 was calculated by the formula: Volume=((width)^2×length)/2. Animals were removed from study if found moribund or if tumor volume exceeded 1500 mm^3. […] Food, water, temperature and humidity were according to Pharmacology Testing Facility performance standards (SOPs) which are in accordance with the 1996 Guide for the Care and Use of Laboratory Animals (NRC) and AAALAC-International.
The murine MC-38 colon adenocarcinoma cell line was developed in C57BL/6 mice upon subcutaneous injection of dimethylhydrazine (Corbett, T. H., Griswold, D. P., et al. (1975), Cancer Research 35, 2434-2439). Extensive immunogenomic, transcriptomic, and therapeutic background are available on this cell line (Yadav, M., Jhunjhunwala, S., et al. (2014) Nature, 515, 572-576; and Efremova, M., Rieder, D., et al. (2018) Nat. Commun. 9, 32). The MC-38 cell line is reported to harbor driver mutations in TP53, PTEN, SMAD2, SMAD4, ACVR2A, TGFB2, BRAF, AXIN, SOX9, and ARID1A. Furthermore, mutations in the MMR gene MSH3 indicate that this cell line is a model of human MSI/hypermutated colorectal cancer. Whole exome sequencing has also identified 1290 transcript coding variations (compared to the reference C57BL/6 genome), among which 170 were predicted to be MHC Class I-presented neo-epitopes.
MC-38 (National Cancer Institute-Frederick Tumor Repository, Frederick, Md.) cells were grown in a humidified atmosphere of 5% CO2 using DMEM growth media (Gibco Life Technologies, 11965-092) supplemented with 10% fetal bovine serum (HyClone SH30071.03, Logan, Utah) and 100 U/mL penicillin, 100 μg/mL streptomycin (Gibco Life Technologies, 15140-122). Cells were confirmed murine virus and mycoplasma negative (IDEXX Laboratories Inc, Columbia, Mo.) prior to implantation. […]

[3] = oral QD 28 days at 30, 100 or 300/200 mg/kg
[4] = Compound 1 50 mg/kg PO BID Days 10-16 (7 days) in combination with anti-PD-1 200 μg IP BIW (Days 10, 13, 17, 20)
[5] = Compound 1 50 mg/kg PO BID Days 10-16 and Days 24-30 (interval schedule) in combination with anti-PD-1 200 μg IP BIW (Days 10, 13, 17, 20)
[6] = Compound 1 50 mg/kg PO BID Days 10-23 (14 days) in combination with anti-PD-1 200 μg IP BIW (Days 10, 13, 17, 20)
[7] = Compound 1 50 mg/kg PO BID Days 10-30 (21 days) in combination with anti-PD-1 200 μg IP BIW (Days 10, 13, 17, 20)
[8] = Compound 1 50 mg/kg PO BID Days 10-37 (28 days) in combination with anti-PD-1 200 μg IP BIW (Days 10, 13, 17, 20)
[9] = Compound 1 monotherapy, 50 mg/kg PO BID Days 10-37 (28 days)

Q: With CC(C)n1cc(C(=O)Nc2ccc(Oc3ccnc4[nH]nc(N[C@H](C)CO)c34)c(F)c2)c(=O)n(-c2ccc(F)cc2)c1=O [Compound 1, (R)—N-(3-fluoro-4-((3-((1-hydroxypropan-2-yl)amino)-1H-pyrazolo[3,4-b]pyridin-4-yl)oxy)phenyl)-3-(4-fluorophenyl)-1-isopropyl-2,4-dioxo-1,2,3,4-tetrahydropyrimidine-5-carboxamide] as the molecule, how does the BCRP substrate status (BCRP) read?
A: substrate of P-gp and BCRP

Q: And the “adversity of changes in the eyes and testes” value (Sprague Dawley rats; oral QD 28 days)?
A: considered to be adverse

Q: And the “dose with structural/functional changes in the eyes (outer retinal atrophy), female” value (Sprague Dawley rats; [3])?
A: 30 mg/kg

Q: And the “dose with structural/functional changes in the eyes (outer retinal atrophy), males” value (Sprague Dawley rats; [3])?
A: 100 mg/kg

Q: What about the “reversibility of outer retinal atrophy” value (Sprague Dawley rats; oral QD 28 days, 28-day recovery period) of the same molecule?
A: unrecoverable

Q: What about the “therapeutic multiples compared to expected exposure at the starting dose of 25 mg QD” value [1] of the same molecule?
A: 39-78

Q: And the “STD10 for 14 days once daily dose administration” value ([1]; 14 days)?
A: 100 mg/kg

Q: What about the “response of cured mice to subsequent re-challenge with the same syngeneic tumor” value (syngeneic tumor) of the same molecule?
A: resistant to subsequent re-challenge with the same syngeneic tumor

Q: What about the “% TGI on Day 32” value [2, 4] of the same molecule?
A: 96.6%

Q: And the “Cures on Day 66” value [2, 4]?
A: 6/8

Q: And the “Median Survival (days)” value ([2]; Compound 1 50 mg/kg PO BID Days 10-16 (7 days) in combination with anti-PD-1 200 μg IP BIW)?
A: not reached

Q: And the “% TGI on Day 32” value [2, 5]?
A: 96.2%

Q: And the “Cures on Day 66” value [2, 5]?
A: 4/8

Q: And the “Median Survival (days)” value ([2]; Compound 1 50 mg/kg PO BID Days 10-16 and Days 24-30 (interval schedule) in combination with anti-PD-1 200 μg IP BIW)?
A: not reached

Q: And the “% TGI on Day 32” value [2, 6]?
A: 97.1%

Q: What about the “Cures on Day 66” value [2, 6] of the same molecule?
A: 3/8

Q: And the “Median Survival” value [2, 6]?
A: 66 days

Q: And the “% TGI on Day 32” value [2, 7]?
A: 98.5%

Q: And the “Cures on Day 66” value [2, 7]?
A: 3/8

Q: And the “Median Survival (days)” value ([2]; Compound 1 50 mg/kg PO BID Days 10-30 (21 days) in combination with anti-PD-1 200 μg IP BIW)?
A: not reached

Q: And the “% TGI on Day 32” value [2, 8]?
A: 99.3%

Q: And the “Cures on Day 66” value [2, 8]?
A: 5/7

Q: What about the “Median Survival (days)” value ([2]; Compound 1 50 mg/kg PO BID Days 10-37 (28 days) in combination with anti-PD-1 200 μg IP BIW) of the same molecule?
A: not reached

Q: And the “% TGI on Day 32” value [2, 9]?
A: 95.6%

Q: What about the “Cures on Day 66” value [2, 9] of the same molecule?
A: 0/6

Q: What about the “Median Survival” value [2, 9] of the same molecule?
A: 66 days
